Test results published in publication PMC10354055, “An optimized Nurr1 agonist provides disease-modifying effects in Parkinson’s disease models” (Nature Communications, 2023).
Values joined by “and” are separate entries in the source; they are usually repeats but may differ in a detail not shown here. Identical values can stand only once.

Experiments:
[1] = system: AAV-αSyn-induced male mice; test: pS129 αSyn+ cells in SNpc, AAV-αSyn-induced mice; assay type: in vivo, mouse
Source text: (§1) Adeno-associated viruses (AAVs) expressing GFP only or αSyn (wild-type or A53T) were kindly provided by Dr. Yoon Seong Kim from the University of Central Florida. Recombinant AAV vectors were produced using modified pAAV-IRES-hrGFP (Agilent) to express wild-type and mutant human αSyn under control of the CMV promoter. Viral particles (AAV2) were produced at the University of Iowa Viral Vector Core according to standard operating procedures (https://medicine.uiowa.edu/vectorcore/). […] AAV vectors were delivered into the substantia nigra unilaterally by stereotaxic surgery.
(§2) Images were acquired using a KEYENCE microscope and quantified as the number or optical density of immunoreactive cells using ImageJ software.
(§3) The numbers of TH^+ DA neurons, NeuN^+ neurons, pS129 αSyn^+ cells in the SN and Iba-1^+ microglia in the SN and striatum were stereologically counted in six coronal sections (30 µm thickness) taken every 6th section (180 µm intervals) for each brain. The boundaries of the SN and striatum were delimited at low magnification (4X) to estimate each total area. Immunoreactive cells were counted with images taken at high magnification (×40) by a single blinded investigator. The group mean of the total number of immunoreactive cells from each brain was transformed as percentage of the number in the control group (%). For AAV-αSyn-induced mice, the group mean of the total number of cells in the ipsilateral side was transformed as a percentage of that observed in the contralateral side.

[2] = system: AAV-αSyn-induced male mice; test: IHC/stereology of TH+ and NeuN+ neurons and TH+ fibers, AAV-αSyn-induced mice; assay type: in vivo, mouse; details: for loss of TH+ and NeuN+ neurons and TH+ fibers (in words): αSynWT-mice
Source text: as §1, §2, §3

MPTP-induced male mice = test: Rotarod, sub-chronic MPTP-induced PD model mice; assay type: in vivo, mouse; details: for Latency to fall: Figure 4b, MPTP-induced mice, individual animal values
Protocol: MPTP (Sigma-Aldrich) was intraperitoneally (i.p.) injected (30 mg/kg) for 5 days (Day 1-5). […] To test dyskinetic involuntary behavior, an L-DOPA injected group was included, which received 50 mg/kg of L-DOPA and 15 mg/kg of benserazide (Sigma-Aldrich) (i.p.) for 16 days (Day 1–16). All compounds were administered 6 h post-MPTP injection to avoid any effect of compounds on the MPTP metabolism in the brain. Motor and non-motor related behavior tests were performed on the following days as described in Fig. 4a in an assessor- and observer-blinded fashion. Pre-training and baseline setup for motor-related behaviors were performed 3 days prior to the injections. Mice were sacrificed and subjected to immunohistochemistry. Mice were housed at the Animal Care Facilities of McLean Hospital under a 12-h light/12-h dark cycle, ambient temperature and humidity. Animals were handled in accordance with McLean Hospital’s Institutional Animal Care and Use Committee (Protocol #: 2015N000002) and followed National Institutes of Health guidelines.
Mice were pre-trained on an automated 5-lane rotarod unit (10 rpm, 3 min) for 2 days and the baseline was measured (10 rpm, 90 sec) before the rotarod test (3 days before the MPTP injection or the first rotarod test at week 2). Rotarod measurements were performed using an accelerating protocol, accelerated smoothly from 2 to 30 rpm for 5 min. Time on the rotating rod was measured automatically by placing a trip switch under the floor beneath the rotating drum.

Nurr1-LBD = Nurr1-LBD (Homo sapiens, UniProt P43354); test: [3H]-CQ radioligand competition binding assay; details: for % of Specific binding / IC50: Fig. 1h; for IC50: competition with [3H]-CQ
Protocol: Saturation and competition assays were performed as previously described. For saturation assay, 0.2 µM of Nurr1-LBD and 125-10,000 nM of [^3H]-CQ were incubated in binding buffer (20 mM sodium acetate buffer (pH 5.2)) at 4 °C overnight. […] Assay mixtures were applied to GF/B filters (Brandel Inc.) to capture Nurr1-LBD bounded ligands. […] All graphs and IC50 values were generated using the non-linear regression program in GraphPad Prism version 8.0.2.

TH+ neurons = test: Primary rat VM neuron-glia co-culture, TH+ neurons (ICC); assay type: cell-based
Protocol: After blocking with 10% normal donkey serum (NDS) and 0.1% Triton X-100 solution for 1 h at room temperature, cells were incubated with primary antibodies against TH (1:1,000; Pel Freez, P40401) and Iba-1 (1:500; Abcam, ab5076) in 1% NDS and 0.1% Triton X-100 solution for overnight at 4 °C. […] Fluorescence images were taken using a KEYENCE microscope (BZ-X800; KEYENCE).

Nurr1-LBD, sequence (P43354 360-595 limits assumed, species assumed): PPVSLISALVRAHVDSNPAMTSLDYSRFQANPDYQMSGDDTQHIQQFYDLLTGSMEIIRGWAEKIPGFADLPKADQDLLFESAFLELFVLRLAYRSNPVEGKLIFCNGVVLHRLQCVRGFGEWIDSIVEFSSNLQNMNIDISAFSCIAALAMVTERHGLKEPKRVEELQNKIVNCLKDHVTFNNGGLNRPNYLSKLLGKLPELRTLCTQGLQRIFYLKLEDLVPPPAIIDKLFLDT

SMILES | phosphorylated αSyn (αSynS129) in SN (in words) ([1]; αSynWT-mice) | loss of TH+ and NeuN+ neurons and TH+ fibers (in words) [2] | Latency to fall (MPTP-induced male mice) | % of Specific binding (Nurr1-LBD; competitor conc. 0.0001 (µM)) | % of Specific binding (Nurr1-LBD; competitor conc. 0.001 (µM)) | % of Specific binding (Nurr1-LBD; competitor conc. 0.01 (µM)) | % of Specific binding (Nurr1-LBD; competitor conc. 0.1 (µM)) | % of Specific binding (Nurr1-LBD; competitor conc. 1 (µM)) | % of Specific binding (Nurr1-LBD; competitor conc. 10 (µM)) | % of Specific binding (Nurr1-LBD; competitor conc. 100 (µM)) | % of Specific binding (Nurr1-LBD; competitor conc. 1000 (µM)) | % of Specific binding (Nurr1-LBD; competitor conc. 10000 (µM)) | % of Specific binding (Nurr1-LBD; competitor conc. 100000 (µM)) | % of Specific binding (Nurr1-LBD; competitor conc. 1000000 (µM)) | IC50 (Nurr1-LBD) | also measured
CCN(CC)CCCC(C)Nc1ccnc2cc(Cl)ccc12 (stereo not drawn) [CQ, chloroquine] | significantly diminished | partially prevented | 188.53 s and 158.67 s and 132.1 s and 179.3 s and 127.13 s and 200.87 s and 173.6 s and 164.1 s | 118.1264% and 84.3678% and 87.5058% | 105.0129% and 88.1206% and 97.7170% | 86.0400% and 103.1100% and 99.0600% | 92.2329% and 89.2060% and 101.4170% | 91.1049% and 87.6783% and 85.5188% | 73.9055% and 78.9516% and 86.9689% | 60.9070% and 71.4020% and 69.8520% | 61.7083% and 49.9850% and 61.0054% | 29.9520% and 33.4512% and 36.5796% | 19.5396% and 23.9835% and 21.7371% | 14.1307% and 7.3236% and 10.4343% | 1.03 µM and 1 µM | –
CCN1CCN(c2cc(N3CCN(CC)CC3)nc(NCCNc3ccnc4cc(Cl)ccc34)n2)CC1 [4A7C-301, N^1-(4,6-bis(4-ethylpiperazin-1-yl)pyrimidin-2-yl)-N^2-(7-chloroquinolin-4-yl)ethane-1,2-diamine] | significantly diminished | partially prevented | 133.23 s and 202.2 s and 133.57 s and 139.3 s and 213.2 s and 211.5 s and 122.9 s and 231.93 s | 97.5500% and 87.3600% and 114.0900% | 93.3315% and 98.5361% and 111.1323% | 98.5241% and 100.1201% and 98.1018% | 94.8655% and 104.0393% and 99.1513% | 96.7105% and 99.4183% and 101.5113% | 93.5241% and 103.1201% and 98.1018% | 102.0642% and 94.9839% and 98.3253% | 95.6857% and 99.8470% and 98.1514% | 97.6484% and 92.6051% and 102.8033% | 94.7542% and 97.7292% and 100.6669% | 94.8500% and 98.0088% and 99.1887% | 0.0482 µM and 0.05 µM | concentration of maximal effect on mDAN rescue (TH+ neurons; MPP+ or LPS): 500 nM; concentration of maximal effect, times lower than CQ (TH+ neurons; mDAN rescue): 40 times; phosphorylated αSyn (αSynS129) in SN (in words) ([1]; αSynA53T-mice): significantly reduced; loss of TH+ and NeuN+ neurons and fibers (in words) ([2]; αSynA53T-mice): significantly prevented; motor function, rotarod (in words) (MPTP-induced male mice; CQ 40, 4A7C-301 5, L-DOPA 50 mg/kg/day, i.p., 16 days): significantly rescued; binding affinity for Nurr1-LBD relative to CQ (Nurr1-LBD; from radioligand and TR-FRET IC50s): 20 fold and ~ 20 fold
